Legend:
Assay type in all cases: cell-based
[1] = tested on: rat neonatal cardiomyocytes; assay: Hypertrophy of rat neonatal cardiomyocytes treated with high glucose; settings: 25 mM glucose, 25 μM compound
Protocol: (§1) Cos-Nox2, Cos-Nox1, human fibroblasts were cultured in DMEM, 10% FBS-supplemented media, human pulmonary artery endothelial cells were cultured in EBM2media containing growth factors (Lonza) and rat neonatal cardiomyocytes were cultured in DMEM/F12 (50/50) media supplemented with 5% horse serum, 100 μM BrdU and Insulin-Transferrin-Selenium (ITS, Gibco).
Hypertrophy was assessed by measurement of cardiomyocytes length using ImageJ public domain software (developed by the National Institutes of Health).
(§2) To evaluate the pre-clinical potential of compounds 11g and 11h, the effects of high levels of glucose, which induce the generation of reactive oxygen species in cardiomyocytes and may contribute to the development of cardiomyopathy in diabetes, were evaluated. […] Furthermore, both compound 11g and compound 11h were able to reduce cardiomyocyte hypertrophy associated with high glucose challenge (FIG. 16).

human fibroblasts = assay: PMA-stimulated ROS production by human fibroblasts; settings: 10 μM compound
Protocol: as §1
Compounds 11g and 11h also were evaluated for potential inhibitory activity in phorbol ester (PMA)-stimulated ROS production by human fibroblasts. As expected PMA, an activator of protein kinase C, stimulated superoxide production. This effect was attenuated by both compounds at a concentration of 10 μM (FIG. 11).

Nox1 hybrid system = biological target: T1, Nox1 hybrid system (Homo sapiens, UniProt Q9Y5S8); assay: ROS production of transiently Nox1 hybrid system-transfected Cos cells treated with PMA; settings: 10 μM compound
T1 construct: Plasmids encoding full-length human cDNAs for Nox1 (pcDNA3.1-hNox1); expressed in transfected cells; host or cells: Cos cells, transient transfection
T1 sequence (Q9Y5S8 1-564): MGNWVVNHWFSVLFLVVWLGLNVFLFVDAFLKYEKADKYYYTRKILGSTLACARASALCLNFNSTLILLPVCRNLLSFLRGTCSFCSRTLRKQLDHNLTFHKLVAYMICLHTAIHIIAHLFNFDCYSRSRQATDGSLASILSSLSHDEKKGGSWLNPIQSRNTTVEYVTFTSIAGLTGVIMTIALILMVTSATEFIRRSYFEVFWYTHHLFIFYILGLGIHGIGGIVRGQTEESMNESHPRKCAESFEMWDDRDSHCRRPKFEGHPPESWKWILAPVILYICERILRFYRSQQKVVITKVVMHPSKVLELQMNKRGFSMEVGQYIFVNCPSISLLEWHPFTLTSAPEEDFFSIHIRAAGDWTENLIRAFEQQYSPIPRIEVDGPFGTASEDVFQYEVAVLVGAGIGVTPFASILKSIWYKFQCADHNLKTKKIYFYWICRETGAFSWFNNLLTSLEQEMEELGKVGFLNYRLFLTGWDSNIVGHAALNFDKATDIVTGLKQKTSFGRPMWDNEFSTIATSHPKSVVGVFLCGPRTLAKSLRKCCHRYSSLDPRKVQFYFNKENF
Protocol: Cell transfection was carried out using Lipofectamine LTX and Plus reagent (Invitrogen, Carlsbad, Calif., USA), according to the manufacturer's instructions. COS-22 cells were transiently co-transfected with pcDNA 3.1-hNox1, pCMVsport 6-hNOXA1 and pcDNA3.1-hNoxO1 (COS-Nox1/NOXO1/NOXA1 cells) or with pcDNA3.1/Hygro-hNox4 (COS-Nox4 cells). Cells were used 24 hr after transfection. Adherent cells were harvested by incubating with 0.05% trypsin/EDTA for 5 min at 37° C. Following addition of DMEM/10% FBS to neutralize the trypsin, the cells were pelleted by centrifugation at 1100×g for 5 min at 4° C. and used for the experiments.
Since p47^phox activation is important not only for Nox2 activity but also for Nox1 hybrid system present mainly in human endothelial cells, the effect of compounds 11g and 11h on ROS production of transiently Nox2-transfected (FIG. 13) or Nox1 hybrid system-transfected Cos cells (FIG. 14) treated with phorbol ester (PMA) was evaluated.

[2] = biological target: T2, p47^phox association with Nox2 (cytochrome b558) (Homo sapiens, UniProt P14598); assay: Co-immunoprecipitation of Nox2/p47phox in Cos-Nox2 cells; settings: Cos-Nox2 cells pre-incubated with compound
T2 construct: expressed in transfected cells
T2 sequence (P14598 1-390): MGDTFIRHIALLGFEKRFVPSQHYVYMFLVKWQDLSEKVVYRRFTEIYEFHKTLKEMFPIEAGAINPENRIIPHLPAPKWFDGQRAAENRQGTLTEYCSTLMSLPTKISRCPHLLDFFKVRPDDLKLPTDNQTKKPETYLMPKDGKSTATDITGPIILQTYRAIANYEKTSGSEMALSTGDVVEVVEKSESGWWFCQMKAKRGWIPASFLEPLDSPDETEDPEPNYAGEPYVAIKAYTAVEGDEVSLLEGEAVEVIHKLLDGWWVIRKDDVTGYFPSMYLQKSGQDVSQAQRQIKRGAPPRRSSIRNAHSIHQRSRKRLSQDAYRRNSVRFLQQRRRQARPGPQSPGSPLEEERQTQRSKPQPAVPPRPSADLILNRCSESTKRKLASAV
Protocol: 300 μg of cell homogenates were diluted in 0.3 ml HBSS buffer and incubated with 1.25 μg of α-p47^phox antibody (Santa Cruz Biotechnology). After overnight incubation at 4° C. with constant agitation, 10 μl of Protein G-Agarose slurry were added to each sample to pull-down p47^phox: antibody complex. Beads were washed, boiled, run on PAGE-SDS gels and then blotted on nitrocellulose membrane. Western blot analysis was carried out using antibodies against p47^phox and Nox2. Bands were visualized using Odyssey software from Licor and then quantified using ImageJ software.
To interrogate a mode of Nox2 inhibition, in silico interaction analysis of pre-existing atomic structures was employed. […] To further investigate this type of interaction and inhibition, co-immunoprecipitation was used and p47^phox association with cytochrome b558 in Cos-Nox2 cells.

[3] = tested on: rat neonatal cardiomyocytes; assay: ROS production of rat neonatal cardiomyocytes treated with high glucose; settings: 25 mM glucose, 25 μM compound
Protocol: as §1, §2

## C=C(C)CC1C2c3c(Br)cccc3C(CC2(C)C)N1Cc1cccs1 (racemic) [Compound 11h, (±)-(1S,4R,9S)-5-Bromo-3,3-dimethyl-9-(2-methylallyl)-10-(thiophen-2-ylmethyl)-1,2,3,4-tetrahydro-1,4-(epiminomethano)naphthalene]
[1]
  Cardiomyocyte hypertrophy with high glucose challenge: reduce
Human fibroblasts
  PMA-stimulated superoxide production: attenuated
Nox1 hybrid system
  PMA-stimulated ROS production, Nox1 hybrid system-transfected Cos cells: did not significantly inhibit
[2]
  Attenuation of PMA-promoted p47phox/Nox2 interaction (co-immunoprecipitation): 33.45±6.08%
[3]
  High glucose-dependent ROS production in rat cardiomyocytes: ameliorated

## C=C(C)CC1C2c3c(Br)cccc3C(CC2(C)C)N1CCCCC (racemic) [Compound 11g, (±)-(1S,4R,9S)-5-Bromo-3,3-dimethyl-9-(2-methylallyl-10-pentyl-1,2,3,4-tetrahydro-1,4-(epiminomethano)naphthalene]
[1]
  Cardiomyocyte hypertrophy with high glucose challenge: reduce
Human fibroblasts
  PMA-stimulated superoxide production: attenuated
Nox1 hybrid system
  PMA-stimulated ROS production, Nox1 hybrid system-transfected Cos cells: inhibited
[2]
  Attenuation of PMA-promoted p47phox/Nox2 interaction (co-immunoprecipitation): 34.3±6.07%
[3]
  High glucose-dependent ROS production in rat cardiomyocytes: ameliorated
